# From the supplement of paper PMC6045584
# ± gives the standard deviation of the averaged measurements.
# Tests used:
# [1] = compound: T1, C#Cc1cccc(Nc2ncnc3cc(OCCOC)c(OCCOC)cc23)c1 [ERLOTINIB]; experiment: surviving fraction relative to DMSO-only wells; higher = less growth inhibition; conditions: exposure time: 5 days
# Outline: (§1)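 At 250–500 cells per well in 384-well plates, log-phase tumour cell lines were seeded and, 24 hours on, exposed continuously for five days to inhibitors at 0.5, 1, 5, 10, 50, 100, 500 and 1000 nM. Viability readout was CellTiter-Glo luminescence, reported as surviving fraction normalised to the median of DMSO-only wells.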
# [2] = compound: T2, CN(Cc1cnc2nc(N)nc(N)c2n1)c1ccc(C(=O)N[C@@H](CCC(=O)O)C(=O)O)cc1 [METHOTREXATE]; experiment: as above; conditions: exposure time: 5 days
# Outline: as §1
# [3] = compound: T3, CO[C@H]1C[C@@H]2CC[C@@H](C)[C@@](O)(O2)C(=O)C(=O)N2CCCC[C@H]2C(=O)O[C@H]([C@H](C)C[C@@H]2CC[C@@H](OCCO)[C@H](OC)C2)CC(=O)[C@H](C)/C=C(\C)[C@@H](O)[C@@H](OC)C(=O)[C@H](C)C[C@H](C)/C=C/C=C/C=C/1C [EVEROLIMUS]; experiment: as above; conditions: exposure time: 5 days
# Outline: as §1
# [4] = compound: T4, NC1(c2ccc(-c3nc4ccn5c(=O)[nH]nc5c4cc3-c3ccccc3)cc2)CCC1 [MK2206]; experiment: as above; conditions: exposure time: 5 days
# Outline: as §1
# [5] = compound: T1, ERLOTINIB; experiment: area under dose-response curve of surviving fraction (unscaled, Aref=0) (surviving fraction x log10(nM)); higher = more resistant; conditions: exposure time: 5 days; dose range 0.5-1000 nM
# Outline: (§2)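 Three screens per tumour cell line were run in 384-well plates at eight inhibitor concentrations from 0.5 to 1000 nM over five days. Surviving fractions, from CellTiter-Glo luminescence normalised to DMSO-only wells, were fitted with 3-parameter logistic curves in the drc R package. The reported area under the curve is the unscaled activity area. It spans log10 dose, and Aref is 0.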
# [6] = compound: T2, METHOTREXATE; experiment: as above; conditions: exposure time: 5 days; dose range 0.5-1000 nM
# Outline: as §2
# [7] = compound: T3, EVEROLIMUS; experiment: as above; conditions: exposure time: 5 days; dose range 0.5-1000 nM
# Outline: as §2
# [8] = compound: T4, MK2206; experiment: as above; conditions: exposure time: 5 days; dose range 0.5-1000 nM
# Outline: as §2
# [9] = compound: Nc1ccn([C@@H]2O[C@H](CO)[C@@H](O)C2(F)F)c(=O)n1 [GEMCITABINE]; experiment: as above; conditions: exposure time: 5 days; dose range 0.5-1000 nM
# Outline: as §2
# [10] = compound: CCC1=C[C@@H]2CN(C1)Cc1c([nH]c3ccccc13)[C@@](C(=O)OC)(c1cc3c(cc1OC)N(C)[C@H]1[C@@](O)(C(=O)OC)[C@H](OC(C)=O)[C@]4(CC)C=CCN5CC[C@]31[C@@H]54)C2 [VINORELBINE]; experiment: as above; conditions: exposure time: 5 days; dose range 0.5-1000 nM
# Outline: as §2
# [11] = compound: CCCS(=O)(=O)Nc1ccc(F)c(C(=O)c2c[nH]c3ncc(Cl)cc23)c1F [PLX-4720]; experiment: as above; conditions: exposure time: 5 days; dose range 0.5-1000 nM
# Outline: as §2
# [12] = compound: CCN(CC)CCNC(=O)c1c(C)[nH]c(/C=C2\C(=O)Nc3ccc(F)cc32)c1C [SUNITINIB]; experiment: as above; conditions: exposure time: 5 days; dose range 0.5-1000 nM
# Outline: as §2
# [13] = compound: COc1cc(CCc2cc(NC(=O)c3ccc(N4CC(C)NC(C)C4)cc3)n[nH]2)cc(OC)c1 [AZD4547]; experiment: as above; conditions: exposure time: 5 days; dose range 0.5-1000 nM
# Outline: as §2
# [14] = compound: COc1cc([C@@H]2c3cc4c(cc3[C@@H](O[C@@H]3O[C@@H]5CO[C@@H](C)O[C@H]5[C@H](O)[C@H]3O)[C@H]3COC(=O)[C@H]23)OCO4)cc(OC)c1O [ETOPOSIDE]; experiment: as above; conditions: exposure time: 5 days; dose range 0.5-1000 nM
# Outline: as §2
# [15] = compound: Cc1nc(Nc2n[nH]c3c2CN(C(=O)N[C@H](CN(C)C)c2ccccc2)C3(C)C)c2sccc2n1; experiment: as above; conditions: exposure time: 5 days; dose range 0.5-1000 nM
# Outline: as §2
# [16] = compound: O=C(NOCC1CC1)c1ccc(F)c(F)c1Nc1ccc(I)cc1Cl; experiment: as above; conditions: exposure time: 5 days; dose range 0.5-1000 nM
# Outline: as §2
test system,measurement,setting,value
CCK81 LARGE INTESTINE,surviving fraction,[1]; 0.5 nM,0.779 ± 0.2
same,surviving fraction,[1]; 5 nM,0.794 ± 0.077
same,surviving fraction,[1]; 10 nM,0.774 ± 0.13
same,surviving fraction,[1]; 50 nM,0.774 ± 0.11
same,surviving fraction,[1]; 100 nM,0.749 ± 0.065
same,surviving fraction,[1]; 500 nM,0.19 ± 0.012
same,surviving fraction,[1]; 1000 nM,0.78 ± 0.031
same,surviving fraction,[2]; 0.5 nM,0.75 ± 0.13
same,surviving fraction,[2]; 1 nM,0.843 ± 0.061
same,surviving fraction,[2]; 5 nM,0.716 ± 0.15
same,surviving fraction,[2]; 10 nM,0.697 ± 0.029
same,surviving fraction,[2]; 50 nM,0.701 ± 0.054
same,surviving fraction,[2]; 100 nM,0.663 ± 0.083
same,surviving fraction,[2]; 500 nM,0.697 ± 0.077
same,surviving fraction,[2]; 1000 nM,0.714 ± 0.095
same,surviving fraction,[3]; 0.5 nM,0.812 ± 0.075
same,surviving fraction,[3]; 1 nM,0.754 ± 0.031
same,surviving fraction,[3]; 5 nM,0.701 ± 0.11
same,surviving fraction,[3]; 10 nM,0.711 ± 0.14
same,surviving fraction,[3]; 50 nM,0.715 ± 0.041
same,surviving fraction,[3]; 100 nM,0.756 ± 0.048
same,surviving fraction,[3]; 500 nM,0.551 ± 0.1
same,surviving fraction,[3]; 1000 nM,0.5123 ± 0.004
same,surviving fraction,[4]; 0.5 nM,0.868 ± 0.21
same,surviving fraction,[4]; 1 nM,0.793 ± 0.089
same,surviving fraction,[4]; 5 nM,0.751 ± 0.14
same,surviving fraction,[4]; 10 nM,0.809 ± 0.053
same,surviving fraction,[4]; 50 nM,0.728 ± 0.075
same,surviving fraction,[4]; 100 nM,0.798 ± 0.098
same,surviving fraction,[4]; 500 nM,0.944 ± 0.13
same,surviving fraction,[4]; 1000 nM,0.806 ± 0.049
same,area under dose-response curve,[5],2.36
same,area under dose-response curve,[6],2.37
same,area under dose-response curve,[7],2.28
same,area under dose-response curve,[8],2.67
same,area under dose-response curve,[9],1.48
HS57T LUNG,area under dose-response curve,[5],3.44
same,area under dose-response curve,[10],1.21
same,area under dose-response curve,[11],3.1
same,area under dose-response curve,[12],2.84
same,area under dose-response curve,[6],2.04
same,area under dose-response curve,[7],1.54
same,area under dose-response curve,[13],2.66
same,area under dose-response curve,[14],2.88
same,area under dose-response curve,[15],1.13
same,area under dose-response curve,[8],3.09
same,area under dose-response curve,[9],1.27
same,area under dose-response curve,[16],2.83
